This experiment concerns the target human P2X7 receptor (Homo sapiens, UniProt Q99572, R270H/Y155H). The experiment in a line: Evaluation of human P2X7 receptor inhibitory activity (Yo-Pro uptake, BzATP stimulation, FLIPR TETRA). The experiment is classed as cell-based. Put shortly:
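1321N1 cells stably expressing human P2X7 (T606C/G952A SNP variant), in HBSS buffer pH 7.4-7.5 with Yo-Pro, stimulated with BzATP; compound added 8 min after agonist. Fluorescence followed for 20 min on FLIPR; max-minus-min change gave % inhibition, IC50 by logistic fit.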

Setting [1] is: antagonistic activity for the human P2X7 receptor, read-out: IC50.
The mark [2] stands for this setting: 1321N1 cells stably expressing human P2X7 receptor, BzATP stimulation, Yo-Pro uptake, read-out: IC50 (antagonistic activity for the human P2X7 receptor), class symbol.
Setting [3] is: 1321N1 cells stably expressing human P2X7 receptor, BzATP stimulation, Yo-Pro uptake, read-out: IC50 (antagonistic activity for the human P2X7 receptor).

This is an account of results in patent US10774051B2, “6-membered heterocyclic derivatives and pharmaceutical composition comprising the same” (Shionogi & Co., Ltd., priority 2015, dated 2020).

Where two headings read alike, the source gives them in different places.

For `COc1cn(Cc2cc(F)cc(Cl)c2)c(Nc2cccc3c(=O)[nH]ccc23)nc1=O` [Compound I-0651], the 50% inhibitory concentration (IC50) under setting [1] fell in the range of 10 to 100 nM.
Same read-out and setting: with `COc1cc(C)c(Nc2nc(=O)c(C(N)=O)cn2Cc2ccc(F)c(F)c2)cc1C` [Compound I-1158] the figure was below 10 nM.
Turning to `Cc1cccc(Nc2nc(=O)c(F)cn2Cc2ccc(F)cc2)c1C` [Compound I-0139], under setting [2], the IC50 was below 10 nM.
Same read-out and setting: under `COc1cn(Cc2cccc(Cl)c2)c(Nc2cccc(Cl)c2C)nc1=O` [Compound I-0126] stands 10 to 100 nM.
`CCc1ccc(C)c(Nc2nc(=O)c(F)cn2Cc2cc(F)c(F)c(F)c2)c1` [Compound I-1226]: under setting [1], the IC50 is below 10 nM.
Same read-out and setting: under `COc1cn(Cc2cc(F)cc(F)c2)c(Nc2cc(OC3CC3)ccc2C)nc1=O` [Compound I-0892] stands 10 to 100 nM.
With `COc1cn(Cc2cc(F)cc(Cl)c2)c(Nc2cccc3[nH]c(C)cc23)nc1=O` [Compound I-0579], under setting [2], the IC50 lay within 10 to 100 nM.
Same read-out and setting: with `COc1cn(Cc2ccc(F)cc2)c(Nc2cccc(N(C)C)c2C)nc1=O` [Compound I-0401] the figure was 10 to 100 nM.
With `COc1cn(Cc2ccc(C(F)(F)F)c(F)c2)c(Nc2cccc(Cl)c2C)nc1=O` [Compound I-0634], the IC50 under setting [1] fell in the range of 100 to 500 nM.
On to `COc1cccc(Nc2nc(=O)c(OC)cn2Cc2ccccc2)c1C` [Compound I-0007], for which the IC50 under setting [2] was 10 to 100 nM.
For `COc1cn(Cc2ccc(F)c(Cl)c2)c(Nc2cc(-c3nc4ncccc4o3)ccc2C)nc1=O` [Compound I-0417], the IC50 under setting [2] lay within 100 to 500 nM.
`Cc1ccccc1Nc1nc(=O)c(F)cn1Cc1cc(F)c(F)c(F)c1` [Compound I-1082]: the IC50 under setting [1] was below 10 nM.
`COc1cn(Cc2ccc(F)c(Cl)c2)c(Nc2cc(C(C)C)ccc2C)nc1=O` [Compound I-0228]: the IC50 under setting [2] was in the range of 10 to 100 nM.
On the same count and under the same terms, under `COc1cn(Cc2ccc(F)c(Cl)c2)c(Nc2cc(F)c(F)cc2C)nc1=O` [Compound I-0360] stands 10 to 100 nM.
In the case of `Cc1cn(Cc2ccc(F)c(F)c2)c(Nc2ccc3[nH]ccc3c2C)nc1=O` [Compound I-1168], the IC50 under setting [1] is below 10 nM.
As for `COc1ccc(Nc2nc(=O)cnn2Cc2ccc(F)c(F)c2)c(C)c1` [Compound I-1272], the IC50 under setting [1] was below 10 nM.
Take `COc1cn(Cc2cc(F)cc(F)c2)c(Nc2cc(C)c(OC(F)F)cc2C)nc1=O` [Compound I-0355]: the IC50 under setting [2] is below 10 nM.
`CCc1cc(Cl)ccc1Nc1nc(=O)c(OC)cn1Cc1cc(F)cc(Cl)c1` [Compound I-0611]: under setting [1], the IC50 is 10 to 100 nM.
On the same count and under the same terms, under `COc1cc(Cl)c(Nc2nc(=O)c(F)cn2Cc2cc(F)c(F)c(F)c2)cc1OC` [Compound I-1187] stands below 10 nM.
In the case of `COc1cn(Cc2cccc(OC(F)(F)F)c2)c(Nc2cccc(Cl)c2C)nc1=O` [Compound I-0304], the half-inhibitory concentration (IC50) under setting [2] lay in the range of 500 to 1000 nM.
Consider `COc1cn(Cc2ccc(F)cc2)c(Nc2cc(C)c(C)cc2C)nc1=O` [Compound I-0162], for which the IC50 under setting [2] was below 10 nM.
As for `COc1cn(Cc2cccc(Cl)c2)c(Nc2cccc3sccc23)nc1=O` [Compound I-0484], the IC50 under setting [2] was 10 to 100 nM.
On to `Cc1nn(Cc2cc(F)c(F)c(F)c2)c(Nc2ccc3[nH]ccc3c2C)nc1=O` [Compound I-1262], for which the IC50 under setting [1] is below 10 nM.
With `Cc1cc2[nH]ncc2cc1Nc1nc(=O)c(F)cn1Cc1cc(F)c(F)c(F)c1` [Compound I-1094], the IC50 under setting [1] was below 10 nM.
On to `COc1cn(Cc2ccccc2F)c(Nc2cccc(Cl)c2C)nc1=O` [Compound I-0040], for which, under setting [2], the IC50 lay in the range of 10 to 100 nM.
With `COc1cn(Cc2ccccc2)c(Nc2cc(C)c(OC(F)F)cc2C)nc1=O` [Compound I-0237], the half-maximal inhibitory concentration (IC50) under setting [2] was below 10 nM.
On to `CCOc1ccc(C)c(Nc2nc(=O)c(F)cn2Cc2cc(F)cc(F)c2)c1` [Compound I-1002], for which, under setting [1], the IC50 is 10 to 100 nM.
Same read-out and setting: under `CCc1cc2c(cc1Nc1nc(=O)c(OC)cn1Cc1ccc(F)c(Cl)c1)OCO2` [Compound I-0688] stands below 10 nM.
Take `Cc1c(Cl)cccc1Nc1nc(=O)c(CC(=O)NC2COC2)cn1Cc1ccccc1` [Compound I-0342]: the IC50 under setting [2] fell in the range of 100 to 500 nM.
On to `O=c1nc(Nc2cccc3c2CCN3)n(Cc2cc(F)cc(F)c2)cc1F` [Compound I-1074], for which the IC50 under setting [1] was in the range of 10 to 100 nM.
The same measure, in the same setting: with `COc1cn(Cc2cc(F)cc(F)c2)c(Nc2cc(-c3cccn(C)c3=O)ccc2C)nc1=O` [Compound I-0589] the figure was below 10 nM; with `COc1cn(Cc2ccccc2)c(Nc2cc3c(cc2C)OC(F)(F)O3)nc1=O` [Compound I-0711], 100 to 500 nM.
In the case of `Cc1c(Cl)cccc1Nc1nc(=O)ccn1Cc1ccccc1` [Compound I-0009], under setting [2], the IC50 was below 10 nM.
For `COc1ccc(C)c(Nc2nc(=O)c(C#N)cn2Cc2cc(F)c(F)c(F)c2)c1` [Compound I-1151], under setting [1], the half-maximal inhibitory concentration (IC50) lay in the range of 10 to 100 nM.
Still for that read-out and setting: under `Cc1cccc(Nc2nc(=O)c(F)cn2Cc2cc(F)c(F)c(F)c2)c1F` [Compound I-1185] stands below 10 nM.
As for `Cc1c(Cl)cccc1Nc1nc(=O)c(CC(=O)NCC#N)cn1Cc1ccccc1` [Compound I-0344], the IC50 under setting [2] was 100 to 500 nM.
Take `COc1cn(Cc2ccc(F)c(F)c2)c(Nc2cc(-c3ccc(C)o3)ccc2C)nc1=O` [Compound I-0767]: the IC50 under setting [1] lay within 10 to 100 nM.
Consider `CCc1cc(OC)c(OC)cc1Nc1nc(=O)c(OC)cn1Cc1ccccc1` [Compound I-0256], for which the IC50 under setting [2] was below 10 nM.
Turning to `COc1cc(C)c(Nc2nc(=O)cnn2Cc2cc(F)c(F)c(F)c2)cc1Cl` [Compound I-1278], the IC50 under setting [1] was below 10 nM.
With `COC(=O)Nc1cn(Cc2ccccc2)c(Nc2cccc(Cl)c2C)nc1=O` [Compound I-0020], the IC50 under setting [3] came out at 17 nM.
In the case of `COc1cn(Cc2cc(F)cc(F)c2)c(Nc2cc(C)c(C)cc2C)nc1=O` [Compound I-0377], the IC50 under setting [2] was below 10 nM.
On the same count and under the same terms, under `COc1cccc(Nc2nc(=O)c(OC)cn2Cc2cc(F)cc(Cl)c2)c1C` [Compound I-0509] stands below 10 nM; under `Cc1c(Cl)cccc1Nc1nc(=O)c(C(F)(F)F)cn1Cc1ccccc1` [Compound I-0216], 100 to 500 nM.
In the case of `COc1cn(Cc2ccc(F)c(F)c2)c(Nc2cc3c(cc2C)OCCO3)nc1=O` [Compound I-0291], the IC50 under setting [2] was 10 to 100 nM.
In the case of `COc1cn(Cc2cc(F)cc(Cl)c2)c(Nc2cc(-n3cccc3)ccc2C)nc1=O` [Compound I-0654], the IC50 under setting [1] fell in the range of 10 to 100 nM.
On the same count and under the same terms, under `CCOC(=O)c1cn(Cc2cc(F)c(F)c(F)c2)c(Nc2ccc(OC)cc2C)nc1=O` [Compound I-1080] stands 10 to 100 nM.
Take `COc1cn(Cc2ccccc2)c(Nc2cc(C)c(Cl)cc2C)nc1=O` [Compound I-0233]: the IC50 under setting [2] was below 10 nM.
In the case of `Cc1cc(Nc2nc(=O)ccn2Cc2cc(F)c(F)c(F)c2)c2cc[nH]c2c1` [Compound I-1161], the IC50 under setting [1] is below 10 nM.
Turning to `Cc1nc2cc(C)c(Nc3cc(=O)n(C)c(=O)n3Cc3cc(F)c(F)c(F)c3)cc2s1` [Compound I-0030], the IC50 under setting [3] stood at 34 nM.
For `COc1cn(Cc2cc(F)cc(F)c2)c(Nc2cc(-c3cccnc3)ccc2C)nc1=O` [Compound I-0766], under setting [1], the IC50 was below 10 nM.
Same read-out and setting: with `COc1ccc(Nc2nc(=O)cnn2Cc2ccc(Cl)c(F)c2)c(C)c1` [Compound I-1268] the figure was 10 to 100 nM.
As to `COc1cn(Cc2cc(C)cc(C)c2)c(Nc2cccc(Cl)c2C)nc1=O` [Compound I-0521], the IC50 under setting [2] fell in the range of 500 to 1000 nM.
Still for that read-out and setting: with `CCc1ccccc1Nc1nc(=O)c(OC)cn1Cc1cc(F)c(F)c(F)c1` [Compound I-0568] the figure was 10 to 100 nM.
Regarding `COc1ccc(Nc2nc(=O)c(F)cn2Cc2cc(F)c(F)c(F)c2)c(C)c1F` [Compound I-1245], under setting [1], the IC50 is below 10 nM.
As for `Cc1ccc(N2CCCS2(=O)=O)cc1Nc1nc(=O)c(F)cn1Cc1ccccc1` [Compound I-0148], the IC50 under setting [2] lay within 10 to 100 nM.
As for `Cc1nc2[nH]ccc2cc1Nc1nc(=O)c(F)cn1Cc1cc(F)cc(F)c1` [Compound I-1016], under setting [1], the concentration for half-maximal inhibition (IC50) is 10 to 100 nM.
Take `COc1cn(Cc2cc(F)c(F)c(F)c2)c(Nc2cc(C)c(Cl)cc2C)nc1=O` [Compound I-0575]: the IC50 under setting [2] is below 10 nM.
Still for that read-out and setting: with `COc1cn(Cc2ccccc2)c(Nc2cc(C)cc3[nH]ccc23)nc1=O` [Compound I-0390] the figure was 10 to 100 nM.
`CCOc1cn(Cc2ccc(F)c(Cl)c2)c(Nc2cc(C)c(OC)cc2C)nc1=O` [Compound I-0714]: the IC50 under setting [1] is below 10 nM.
Turning to `COc1cn(Cc2ccc(F)cc2)c(Nc2cc(C)c(Cl)cc2C)nc1=O` [Compound I-0169], the IC50 under setting [2] is below 10 nM.
Turning to `COc1cn(Cc2ccc(F)c(F)c2)c(Nc2cc(S(C)(=O)=O)cc(C)c2C)nc1=O` [Compound I-0756], the IC50 under setting [1] lay within 10 to 100 nM.
The same measure, in the same setting: with `COc1cc(Nc2nc(=O)c(F)cn2Cc2cc(F)cc(F)c2)c(C)cc1Cl` [Compound I-1005] the figure was below 10 nM.
For the molecule `COc1cn(Cc2cccc(Cl)c2)c(Nc2cc(C)c(F)cc2C)nc1=O` [Compound I-0506], the IC50 under setting [2] is below 10 nM.
The same measure, in the same setting: under `COc1cccc(Nc2nc(=O)c(OC)cn2Cc2cc(F)c(F)c(F)c2)c1C` [Compound I-0572] stands below 10 nM; under `COc1cn(Cc2ccc(F)c(Cl)c2)c(NCc2cccc(Cl)c2C)nc1=O` [Compound I-0451], 100 to 500 nM.
For the molecule `Cc1ccccc1Nc1nc(=O)c(C)cn1Cc1cc(F)c(F)c(F)c1` [Compound I-1098], the half-maximal inhibitory concentration (IC50) under setting [1] was in the range of 10 to 100 nM.
On to `Cc1c(Cl)cccc1Nc1nc(=O)c(C(=O)N(C)C)cn1Cc1ccccc1` [Compound I-0100], for which, under setting [2], the IC50 is 100 to 500 nM.
`COc1cn(Cc2cc(F)cc(F)c2)c(Nc2ccc3ncsc3c2C)nc1=O` [Compound I-0857]: under setting [3], the concentration for half-maximal inhibition (IC50) is 26 nM.
Consider `Cc1cc(Nc2nc(=O)c(F)cn2Cc2cc(F)cc(F)c2)c(C)nc1OC(F)F` [Compound I-1234], for which the concentration for half-maximal inhibition (IC50) under setting [1] was below 10 nM.
Regarding `COc1cn(Cc2ccc(F)c(F)c2)c(Nc2cccc(C)c2C)nc1=O` [Compound I-0324], the IC50 under setting [2] is below 10 nM.
The same measure, in the same setting: with `CCc1ccccc1Nc1nc(=O)c(F)cn1Cc1ccccc1` [Compound I-0157] the figure was 10 to 100 nM.
